For 25 molecules, IC50 results are on record in patent US20210300936A1, “PYRAZOLOTRIAZOLOPYRIMIDINE DERIVATIVES AS A2A RECEPTOR ANTAGONIST” (BEIGENE, LTD., priority 2018, published 2021).

The target in the experiment is human A2A receptor (A2AR) (Homo sapiens, UniProt P29274). The experiment is described as follows: Luciferase reporter assay (HEK293-A2AR-luc2p/CRE/Hygro cells, 3 nM CGS21680). In kind it is cell-based. Conditions: 3 nM CGS21680, 5 h incubation. The gist of the method: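 HEK293 cells stably expressing A2AR with a CRE-luc2P reporter were seeded in 1% FBS with 1 U/mL adenosine deaminase. After 18 h, cells got 3 nM CGS21680 plus antagonist at 0.1–10000 nM for 5 h, followed by a luciferase readout. IC50 is relative to the 3 nM CGS21680 signal, set as 100%.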
Sequence of human A2A receptor (A2AR) (P29274 whole entry): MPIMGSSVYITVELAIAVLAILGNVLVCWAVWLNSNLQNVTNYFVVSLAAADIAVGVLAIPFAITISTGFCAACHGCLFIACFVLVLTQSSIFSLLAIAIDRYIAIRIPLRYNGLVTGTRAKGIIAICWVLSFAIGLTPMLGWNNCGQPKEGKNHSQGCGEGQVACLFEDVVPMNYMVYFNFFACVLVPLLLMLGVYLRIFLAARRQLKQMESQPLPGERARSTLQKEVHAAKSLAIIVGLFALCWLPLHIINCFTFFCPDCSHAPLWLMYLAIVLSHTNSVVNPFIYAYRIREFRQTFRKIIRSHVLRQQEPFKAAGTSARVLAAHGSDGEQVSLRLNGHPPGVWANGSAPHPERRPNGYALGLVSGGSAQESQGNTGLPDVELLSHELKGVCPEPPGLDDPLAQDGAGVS

Turning to `CCCCC(C(=O)N1CCN(c2ccc(OCCOC)cc2)CC1)n1ncc2c1nc(N)n1nc(-c3ccco3)nc21` (stereo not shown) [Compound A10, 2-(5-amino-2-(furan-2-yl)-7H-pyrazolo[4,3-e][1,2,4]triazolo[1,5-c]pyrimidin-7-yl)-1-(4-(4-(2-methoxyethoxy)phenyl)piperazin-1-yl)hexan-1-one], the IC50 was 6.3 nM.

Consider `CC(C(=O)N1CCC1)(c1ccccc1)n1ncc2c1nc(N)n1nc(-c3ccco3)nc21` (stereo not shown) [Compound B24, 2-(5-amino-2-(furan-2-yl)-7H-pyrazolo[4,3-e][1,2,4]triazolo[1,5-c]pyrimidin-7-yl)-1-(azetidin-1-yl)-2-phenylpropan-1-one], for which the half-maximal inhibitory concentration (IC50) was found to be 12 nM.

The molecule `COCCOc1ccc(N2CCN(C(=O)C(c3cccc(C(F)(F)F)c3)n3ncc4c3nc(N)n3nc(-c5ccco5)nc43)CC2)cc1` (stereo not shown) [Compound A36, 2-(5-amino-2-(furan-2-yl)-7H-pyrazolo[4,3-e][1,2,4]triazolo[1,5-c]pyrimidin-7-yl)-1-(4-(4-(2-methoxyethoxy)phenyl)piperazin-1-yl)-2-(3-(trifluoromethyl)phenyl)ethan-1-one] had an IC50 of 7.7 nM.

`C[C@](C(=O)N1CCN(c2ccc(OCCCN3CCCC3)cc2)CC1)(c1ccccc1)n1ncc2c1nc(N)n1nc(-c3ccco3)nc21` [Compound A79b, (R)-2-(5-amino-2-(furan-2-yl)-7H-pyrazolo[4,3-e][1,2,4]triazolo[1,5-c]pyrimidin-7-yl)-2-phenyl-1-(4-(4-(3-(pyrrolidin-1-yl)propoxy)phenyl)piperazin-1-yl)propan-1-one] yielded an IC50 of 6.8 nM.

`COCCOc1ccc(N2CCN(C(=O)C(c3ccc(C(F)(F)F)cc3)n3ncc4c3nc(N)n3nc(-c5ccco5)nc43)CC2)cc1` (stereo not shown) [Compound A34, 2-(5-amino-2-(furan-2-yl)-7H-pyrazolo[4,3-e][1,2,4]triazolo[1,5-c]pyrimidin-7-yl)-1-(4-(4-(2-methoxyethoxy)phenyl)piperazin-1-yl)-2-(4-(trifluoromethyl)phenyl)ethan-1-one] came in with a half-inhibitory concentration (IC50) of 75.7 nM.

For the molecule `CC(C(=O)N1CCN(c2cccc(C(=O)NCC3(O)COC3)c2)CC1)(c1ccccc1)n1ncc2c1nc(N)n1nc(-c3ccco3)nc21` (stereo not shown) [Compound A91, 3-(4-(2-(5-amino-2-(furan-2-yl)-7H-pyrazolo[4,3-e][1,2,4]triazolo[1,5-c]pyrimidin-7-yl)-2-phenylpropanoyl)piperazin-1-yl)-N-((3-hydroxyoxetan-3-yl)methyl)benzamide], the midpoint of inhibition, the IC50, lay at 3.3 nM.

On to `Nc1nc2c(cnn2C(C(=O)N2CCc3ccc(OC(F)(F)F)cc3C2)c2ccccc2)c2nc(-c3ccco3)nn12` (stereo not shown) [Compound B6, 2-(5-amino-2-(furan-2-yl)-7H-pyrazolo[4,3-e][1,2,4]triazolo[1,5-c]pyrimidin-7-yl)-2-phenyl-1-(7-(trifluoromethoxy)-3,4-dihydroisoquinolin-2(1H)-yl)ethan-1-one], for which the concentration for half-maximal inhibition (IC50) worked out at 7 nM.

In turn, `COCCOCCOc1ccc(N2CCN(C(=O)C(c3ccccc3)n3cc4c(nc(N)n5nc(-c6ccco6)nc45)n3)CC2)cc1` (stereo not shown) [Compound C15, 2-(5-amino-2-(furan-2-yl)-8H-pyrazolo[4,3-e][1,2,4]triazolo[1,5-c]pyrimidin-8-yl)-1-(4-(4-(2-(2-methoxyethoxy)ethoxy)phenyl)piperazin-1-yl)-2-phenylethan-1-one] had a half-inhibitory concentration (IC50) of 17 nM.

Consider `Nc1nc2c(cnn2C(C(=O)N2CCc3cccc(F)c3C2)c2ccccc2)c2nc(-c3ccco3)nn12` (stereo not shown) [Compound B10, 2-(5-amino-2-(furan-2-yl)-7H-pyrazolo[4,3-e][1,2,4]triazolo[1,5-c]pyrimidin-7-yl)-1-(8-fluoro-3,4-dihydroisoquinolin-2(1H)-yl)-2-phenylethan-1-one], for which the IC50 was 0.8 nM.

`COCCOc1ccc(N2CCN(C(=O)[C@@](C)(c3ccccc3)n3ncc4c3nc(N)n3nc(-c5ccco5)nc43)CC2)c(F)c1` [Compound A64b, (R)-2-(5-amino-2-(furan-2-yl)-7H-pyrazolo[4,3-e][1,2,4]triazolo[1,5-c]pyrimidin-7-yl)-1-(4-(2-fluoro-4-(2-methoxyethoxy)phenyl)piperazin-1-yl)-2-phenylpropan-1-one] yielded a half-inhibitory concentration (IC50) of 2.2 nM.

`COCCOc1ccc(N2CCN(C(=O)C(c3ccccc3OC)n3ncc4c3nc(N)n3nc(-c5ccco5)nc43)CC2)cc1` (single isomer, unassigned) [Compound A31b]: the IC50 came out at 0.1 nM.

Molecule `COCCOc1ccc(N2CCN(C(=O)C(C(C)C)n3cc4c(nc(N)n5nc(-c6ccco6)nc45)n3)CC2)cc1` (stereo not shown) [Compound C2, 2-(5-amino-2-(furan-2-yl)-8H-pyrazolo[4,3-e][1,2,4]triazolo[1,5-c]pyrimidin-8-yl)-1-(4-(4-(2-methoxyethoxy)phenyl)piperazin-1-yl)-3-methylbutan-1-one] returned an IC50 of 648 nM.

`CC(C(=O)N1CCc2cc(F)ccc2C1)(c1ccccc1)n1ncc2c1nc(N)n1nc(-c3ccco3)nc21` (stereo not shown) [Compound B19, 2-(5-amino-2-(furan-2-yl)-7H-pyrazolo[4,3-e][1,2,4]triazolo[1,5-c]pyrimidin-7-yl)-1-(6-fluoro-3,4-dihydroisoquinolin-2(1H)-yl)-2-phenylpropan-1-one]: it took 112 nM to reach half-maximal inhibition (IC50).

The molecule `COCCOc1ccc(N2CCN(C(=O)C(c3ccccc3)n3ncc4c3nc(N)n3nc(-c5ccco5)nc43)CC2)c(F)c1` (stereo not shown) [Compound A44, 2-(5-amino-2-(furan-2-yl)-7H-pyrazolo[4,3-e][1,2,4]triazolo[1,5-c]pyrimidin-7-yl)-1-(4-(2-fluoro-4-(2-methoxyethoxy)phenyl)piperazin-1-yl)-2-phenylethan-1-one] came in with an IC50 of 2 nM.

As to `COCCOc1ccc(N2CCN(C(=O)C(C)(c3cccc(C)c3)n3ncc4c3nc(N)n3nc(-c5ccco5)nc43)CC2)cc1` (stereo not shown) [Compound A75, 2-(5-amino-2-(furan-2-yl)-7H-pyrazolo[4,3-e][1,2,4]triazolo[1,5-c]pyrimidin-7-yl)-1-(4-(4-(2-methoxyethoxy)phenyl)piperazin-1-yl)-2-(m-tolyl)propan-1-one], the half-inhibitory concentration (IC50) came to 6.4 nM.

On to `COCCOc1ccc(N2CCN(C(=O)C(c3cccc(OC)c3)n3ncc4c3nc(N)n3nc(-c5ccco5)nc43)CC2)cc1` (stereo not shown) [Compound A41, 2-(5-amino-2-(furan-2-yl)-7H-pyrazolo[4,3-e][1,2,4]triazolo[1,5-c]pyrimidin-7-yl)-1-(4-(4-(2-methoxyethoxy)phenyl)piperazin-1-yl)-2-(3-methoxyphenyl)ethan-1-one], for which half-maximal inhibition (IC50) required 5.8 nM.

With `CN1CCN(CCCOc2ccc(N3CCN(C(=O)[C@@](C)(c4ccccc4)n4ncc5c4nc(N)n4nc(-c6ccco6)nc54)CC3)cc2)CC1` [Compound A82b, (R)-2-(5-amino-2-(furan-2-yl)-7H-pyrazolo[4,3-e][1,2,4]triazolo[1,5-c]pyrimidin-7-yl)-1-(4-(4-(3-(4-methylpiperazin-1-yl)propoxy)phenyl)piperazin-1-yl)-2-phenylpropan-1-one], the IC50 was 4.9 nM.

As to `CCCC(C(=O)N1CCN(c2ccc(OCCOCCOC)cc2)CC1)n1ncc2c1nc(N)n1nc(-c3ccco3)nc21` (single isomer, unassigned) [Compound A6b, 2-(5-amino-2-(furan-2-yl)-7H-pyrazolo[4,3-e][1,2,4]triazolo[1,5-c]pyrimidin-7-yl)-1-(4-(4-(2-(2-methoxyethoxy)ethoxy)phenyl)piperazin-1-yl)pentan-1-one], half-maximal inhibition (IC50) was put at 135 nM.

Molecule `COCCOc1ccc(N2CCN(C(=O)C(C3CC3)n3cc4c(nc(N)n5nc(-c6ccco6)nc45)n3)CC2)cc1` (single isomer, unassigned) [Compound C16a] showed an IC50 of 4.1 nM.

In the case of `C[C@](C(=O)N1CCN(c2ccc(OCCN3CCOCC3)cc2)CC1)(c1ccccc1)n1ncc2c1nc(N)n1nc(-c3ccco3)nc21` [Compound A80b, (R)-2-(5-amino-2-(furan-2-yl)-7H-pyrazolo[4,3-e][1,2,4]triazolo[1,5-c]pyrimidin-7-yl)-1-(4-(4-(2-morpholinoethoxy)phenyl)piperazin-1-yl)-2-phenylpropan-1-one], the concentration for half-maximal inhibition (IC50) was 2.8 nM.

Turning to `CC(C(=O)N1CCN(c2ccc(OCCN(C)C)cc2)CC1)n1cc2c(nc(N)n3nc(-c4ccco4)nc23)n1` (stereo not shown) [Compound C19, 2-(5-amino-2-(furan-2-yl)-8H-pyrazolo[4,3-e][1,2,4]triazolo[1,5-c]pyrimidin-8-yl)-1-(4-(4-(2-(dimethylamino)ethoxy)phenyl)piperazin-1-yl)propan-1-one], inhibition was half-maximal at 46.3 nM (IC50).

Regarding `COCCOCCOc1ccc(N2CCN(C(=O)C(C)(C)n3cc4c(nc(N)n5nc(-c6ccco6)nc45)n3)CC2)cc1` [Compound C6, 2-(5-amino-2-(furan-2-yl)-8H-pyrazolo[4,3-e][1,2,4]triazolo[1,5-c]pyrimidin-8-yl)-1-(4-(4-(2-(2-methoxyethoxy)ethoxy)phenyl)piperazin-1-yl)-2-methylpropan-1-one], 3180 nM corresponded to half-maximal inhibition (IC50).

Molecule `COCCOc1ccc(N2CCN(C(=O)C(C)(c3ccccc3)n3ncc4c3nc(N)n3nc(-c5ccco5)nc43)CC2)c(OC)c1` (stereo not shown) [Compound A106, 2-(5-amino-2-(furan-2-yl)-7H-pyrazolo[4,3-e][1,2,4]triazolo[1,5-c]pyrimidin-7-yl)-1-(4-(2-methoxy-4-(2-methoxyethoxy)phenyl)piperazin-1-yl)-2-phenylpropan-1-one] came in with an IC50 of 8.5 nM.

`CNC(=O)c1ccc(N2CCN(C(=O)C(C)(c3ccccc3)n3ncc4c3nc(N)n3nc(-c5ccco5)nc43)CC2)cc1` (stereo not shown) [Compound A92, 4-(4-(2-(5-amino-2-(furan-2-yl)-7H-pyrazolo[4,3-e][1,2,4]triazolo[1,5-c]pyrimidin-7-yl)-2-phenylpropanoyl)piperazin-1-yl)-N-methylbenzamide] gave an IC50 of 2.7 nM.

As for `COCCOc1ccc(N2CCN(C(=O)C(C)(c3ccccc3)n3ncc4c3nc(N)n3nc(-c5ccco5)nc43)C[C@H]2C)cc1` (stereo partly drawn) [Compound A73, 2-(5-amino-2-(furan-2-yl)-7H-pyrazolo[4,3-e][1,2,4]triazolo[1,5-c]pyrimidin-7-yl)-1-((R)-4-(4-(2-methoxyethoxy)phenyl)-3-methylpiperazin-1-yl)-2-phenylpropan-1-one], the IC50 stood at 15.6 nM.
